“And” between values parts separate entries of the source, which are not always exact repeats. Equal values may be shown once.
What was measured:
[1] = target: T1, human M5 (Homo sapiens, UniProt P08912); assay: M5 PAM concentration-response-curve; format: cell-based; details: Table 1, average of three independent experiments
T1 sequence (P08912 1-532): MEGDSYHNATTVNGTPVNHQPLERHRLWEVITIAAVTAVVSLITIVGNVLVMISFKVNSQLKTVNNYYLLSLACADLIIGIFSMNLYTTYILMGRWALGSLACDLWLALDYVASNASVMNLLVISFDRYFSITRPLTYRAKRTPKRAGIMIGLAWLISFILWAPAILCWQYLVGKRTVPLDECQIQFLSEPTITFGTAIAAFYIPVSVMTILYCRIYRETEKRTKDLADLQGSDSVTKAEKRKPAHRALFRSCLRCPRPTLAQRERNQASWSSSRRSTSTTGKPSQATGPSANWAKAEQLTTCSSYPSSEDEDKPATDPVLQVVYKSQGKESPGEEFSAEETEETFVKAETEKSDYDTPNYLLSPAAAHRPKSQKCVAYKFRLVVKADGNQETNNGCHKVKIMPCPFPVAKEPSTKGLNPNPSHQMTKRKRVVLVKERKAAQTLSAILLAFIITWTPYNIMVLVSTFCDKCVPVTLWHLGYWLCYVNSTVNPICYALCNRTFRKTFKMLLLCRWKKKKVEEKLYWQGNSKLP

[2] = target: T2, rat M5 (Rattus norvegicus, UniProt P08911); assay: M5 PAM CRC, rat M5; format: cell-based
T2 sequence (P08911 1-531): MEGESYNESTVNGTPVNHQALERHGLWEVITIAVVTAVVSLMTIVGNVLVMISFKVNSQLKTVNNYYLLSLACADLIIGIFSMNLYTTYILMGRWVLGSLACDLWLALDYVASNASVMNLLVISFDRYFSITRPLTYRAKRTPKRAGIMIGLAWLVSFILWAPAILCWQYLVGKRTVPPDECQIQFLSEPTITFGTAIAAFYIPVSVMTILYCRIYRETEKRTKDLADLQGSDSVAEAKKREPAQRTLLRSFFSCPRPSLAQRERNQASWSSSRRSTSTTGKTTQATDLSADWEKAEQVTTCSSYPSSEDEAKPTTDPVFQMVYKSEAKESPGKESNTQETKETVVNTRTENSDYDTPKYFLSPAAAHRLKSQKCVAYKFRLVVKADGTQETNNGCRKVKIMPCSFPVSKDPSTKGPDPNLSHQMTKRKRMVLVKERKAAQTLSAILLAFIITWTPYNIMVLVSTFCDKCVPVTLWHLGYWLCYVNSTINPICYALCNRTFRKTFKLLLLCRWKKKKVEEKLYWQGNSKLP

[3] = tested on: M1-M4; assay: rat mAChR selectivity versus M1-M4; format: cell-based; details: read-out: M1-M4 EC50s; rat (Fig. 5C); text does not state species
[4] = tested on: M1-M4; assay: human mAChR selectivity versus M1-M4; format: cell-based; details: read-out: M1-M4 EC50s; human data is the same as rat
[5] = tested on: CYP; assay: CYP profile; format: in vitro ADME
[6] = ancillary pharmacology profile

Structure (SMILES) | pEC50±SEM [1] | EC50 [2] | EC50 [3] | EC50 [4] | CYP profile [5] | ancillary pharmacology profile [6]
Cc1cccc(OCCN2C(=O)C(=O)c3cc(OC(F)(F)F)ccc32)c1 [Compound 19d] | 6.28±0.03 | – | – | – | – | –
O=C1C(=O)N(CCOc2ccccc2)c2ccc(OC(F)(F)F)cc21 [ML326, 1-(2-phenoxyethyl)-5-(trifluoromethoxy)indoline-2,3-dione] | 6.39±0.04 | 0.5 µM | > 30 µM and < 30 µM | > 30 µM | relatively clean | relatively clean
O=C1C(=O)N(CCOc2ccc(Cl)cc2)c2ccc(OC(F)(F)F)cc21 [Compound 19b] | 6.35±0.04 | – | – | – | – | –

Reference: PMC3634896 (Bioorganic & medicinal chemistry letters, 2013)
